In ChEMBL document CHEMBL1155191, “Simple dihydrosphyngosine analogues with potent activity against MDR-Mycobacterium tuberculosis” (2009):
In brackets after ≈: the same amount, converted by molar mass.

What was measured:
Assay type in all cases: functional
[1] = tested on: Mycobacterium tuberculosis; assay: Antimycobacterial activity against multidrug-resistant Mycobacterium tuberculosis 332 after 5 to 7 days by microplate alamar blue assay
[2] = tested on: Mycobacterium tuberculosis; assay: Antimycobacterial activity against multidrug-resistant, ethambutol-sensitive Mycobacterium tuberculosis 494 after 5 to 7 days by microplate alamar blue assay
[3] = tested on: Mycobacterium tuberculosis; assay: Antimycobacterial activity against multidrug-resistant Mycobacterium tuberculosis 528 after 5 to 7 days by microplate alamar blue assay
[4] = tested on: Mycobacterium tuberculosis; assay: Antimycobacterial activity against multidrug-resistant, ethambutol-sensitive Mycobacterium tuberculosis 401 after 5 to 7 days by microplate alamar blue assay
[5] = tested on: Mycobacterium tuberculosis; assay: Antimycobacterial activity against multidrug-resistant, streptomycin-sensitive Mycobacterium tuberculosis 429 after 5 to 7 days by microplate alamar blue assay
[6] = tested on: Mycobacterium tuberculosis; assay: Antimycobacterial activity against multidrug-resistant Mycobacterium tuberculosis 331 after 5 to 7 days by microplate alamar blue assay
[7] = tested on: Mycobacterium tuberculosis; assay: Antimycobacterial activity against multidrug-resistant Mycobacterium tuberculosis 535 after 5 to 7 days by microplate alamar blue assay
[8] = tested on: Mycobacterium tuberculosis; assay: Antimycobacterial activity against streptomycin, rifampicin, pyrazinamide-sensitive isoniazid, ethambutol-resistant Mycobacterium tuberculosis 363 after 5 to 7 days by microplate alamar blue assay
[9] = tested on: Mycobacterium tuberculosis; assay: Antimycobacterial activity against multidrug-resistant Mycobacterium tuberculosis 411 after 5 to 7 days by microplate alamar blue assay
[10] = tested on: Mycobacterium tuberculosis; assay: Antimycobacterial activity against multidrug-resistant Mycobacterium tuberculosis 160 after 5 to 7 days by microplate alamar blue assay
[11] = tested on: Mycobacterium tuberculosis; assay: Antimycobacterial activity against multidrug-resistant, pyrazinamide-sensitive Mycobacterium tuberculosis 366 after 5 to 7 days by microplate alamar blue assay

| SMILES | MIC [1] | MIC [2] | MIC [3] | MIC [4] | MIC [5] | MIC [6] | MIC [7] | MIC [8] | MIC [9] | MIC [10] | MIC [11] |
| --- | --- | --- | --- | --- | --- | --- | --- | --- | --- | --- | --- |
| CCCCCCCCCCCCCCC(N)COCc1ccccc1 (stereo not drawn) | 36 µM (≈ 12.5 µg/mL) | 9 µM (≈ 3.13 µg/mL) | 18 µM (≈ 6.26 µg/mL) | 4.5 µM (≈ 1.56 µg/mL) | 9 µM (≈ 3.13 µg/mL) | 9 µM (≈ 3.13 µg/mL) | 18 µM (≈ 6.26 µg/mL) | 18 µM (≈ 6.26 µg/mL) | 4.5 µM (≈ 1.56 µg/mL) | 9 µM (≈ 3.13 µg/mL) | 4.5 µM (≈ 1.56 µg/mL) |
| CCCCCCCCCCCCCCC(COCc1ccccc1)N(CC)CC (stereo not drawn) | 1.9 µM (≈ 0.767 µg/mL) | 7.7 µM (≈ 3.11 µg/mL) | 15.5 µM (≈ 6.26 µg/mL) | 7.7 µM (≈ 3.11 µg/mL) | 7.7 µM (≈ 3.11 µg/mL) | 15.5 µM (≈ 6.26 µg/mL) | 3.9 µM (≈ 1.57 µg/mL) | 3.9 µM (≈ 1.57 µg/mL) | 7.7 µM (≈ 3.11 µg/mL) | 7.7 µM (≈ 3.11 µg/mL) | 3.9 µM (≈ 1.57 µg/mL) |
| CCCCCCCCCCCCCCC(N)CN(CC)CC (stereo not drawn) | 40 µM (≈ 12.5 µg/mL) | 40 µM (≈ 12.5 µg/mL) | 40 µM (≈ 12.5 µg/mL) | 40 µM (≈ 12.5 µg/mL) | 40 µM (≈ 12.5 µg/mL) | 40 µM (≈ 12.5 µg/mL) | 40 µM (≈ 12.5 µg/mL) | 40 µM (≈ 12.5 µg/mL) | 40 µM (≈ 12.5 µg/mL) | 40 µM (≈ 12.5 µg/mL) | 20 µM (≈ 6.25 µg/mL) |
